Assay results from PMC4394546, “Discovery of Benzo[f]indole-4,9-dione Derivatives as New Types of Anti-Inflammatory Agents” (International Journal of Molecular Sciences, 2015).

Columns and labels:
[1] = test system: LPS-induced PGE2 production; parameters: method as in PMID 22161217; settings: read-out: Inhibition of LPS-induced PGE2 production, IC50; cited from earlier work
[2] = test system: LPS-induced Raw 264.7 cells; parameters: method as in PMID 23232148; settings: cited from earlier work
[3] = test system: LPS-induced Raw 264.7 cells; parameters: method as in PMID 23232148; settings: cited from earlier work; remark: listed apart in the source
[4] = test system: fMLF-activated human neutrophils; assay: Superoxide anion generation in fMLF-activated human neutrophils (ferricytochrome c reduction); format: cell-based; settings: Neutrophil, mean ± SEM (n = 3), read-out: Superoxide Anion (IC50, concentration necessary for 50% inhibition)
Procedure: (§1) Blood was taken from healthy human donors (20–30 years old) by venipuncture, using a protocol approved by the institutional review board at Chang Gung Memorial Hospital. Neutrophils were isolated with a standard method of dextran sedimentation prior to centrifugation in a Ficoll Hypaque gradient and hypotonic lysis of erythrocytes.
(§2) Superoxide generation and elastase release were carried out according to the procedures described previously. Neutrophils (6 × 10^5/mL) were equilibrated at 37 °C for 2 min and incubated with compounds for 5 min. Neutrophils were then activated by fMLF (100 nM) in the pretreatment of cytochalasin B (1 μg/mL for superoxide generation and 0.5 μg/mL for elastase release) for 10 min. Superoxide anion production was assayed by monitoring the superoxide dismutase-inhibitable reduction of ferricytochrome c. Elastase release was performed using MeO-Suc-Ala-Ala-Pro-Valp-nitroanilide as the elastase substrate.

[5] = In vitro cytotoxicity against NCI-H460 cells; format: cell-based; settings: human, NCI-H460 lung cancer cells; 4 μg/mL; read-out: Cytotoxicity (% survival rate), NCI-H460
Procedure: (§3) These benzo[f]indole-4,9-dione derivatives were evaluated in vitro against a panel of cell lines consisting of MCF7 (breast), NCI-H460 (lung), and SF-268 (CNS) as described previously. […] Results from Table 2 indicated compounds 15 and 16 were cytotoxic and their IC50 against three cancer cells and a normal cell, Detroit 551, were shown in Table 3.

[6] = In vitro cytotoxicity against MCF7 cells; format: cell-based; settings: human, MCF7 breast cancer cells; 4 μg/mL; read-out: Cytotoxicity (% survival rate), MCF7
Procedure: as §3

[7] = test system: fMLF-activated human neutrophils; assay: Neutrophil elastase release in fMLF-activated human neutrophils; format: cell-based; settings: for IC50: Homo sapiens, Neutrophil, fMLF-activated human neutrophils, mean ± SEM (n = 3), read-out: Elastase Release (IC50, concentration necessary for 50% inhibition)
Procedure: as §1, §2

[8] = In vitro cytotoxicity against SF-268 cells; format: cell-based; settings: human, SF-268 CNS cancer cells; 4 μg/mL; read-out: Cytotoxicity (% survival rate), SF-268
Procedure: as §3

NCI-H460 (lung) = assay: In vitro cytotoxicity against NCI-H460 cells; format: cell-based; settings: Homo sapiens, NCI-H460; mean ± standard deviation, three experiments
Procedure: as §3

MCF7 (breast) = assay: In vitro cytotoxicity against MCF7 cells; format: cell-based; settings: Homo sapiens, MCF7; mean ± standard deviation, three experiments
Procedure: as §3

SF-268 (CNS) = assay: In vitro cytotoxicity against SF-268 cells; format: cell-based; settings: Homo sapiens, SF-268; mean ± standard deviation, three experiments
Procedure: as §3

Detroit 551 = assay: In vitro cytotoxicity against normal cell Detroit 551; format: cell-based; settings: Homo sapiens, mean ± standard deviation, three experiments
Procedure: as §3

[9] = test system: superoxide anion generation; parameters: method as in PMID 22510297; settings: cited from earlier work
alveolar macrophages [10] = test system: alveolar macrophages; parameters: method as in PMID 10188987; settings: cited from earlier work
alveolar macrophages [11] = test system: alveolar macrophages; parameters: method as in PMID 10188987; settings: cited from earlier work; remark: listed apart in the source
human neutrophils = assay: Cytotoxicity in human neutrophils by lactate dehydrogenase (LDH) release; format: cell-based
Text: The action mechanisms of 10 in human neutrophils were further investigated. Human neutrophil activations, such as respiratory burst and degranulation, are regulated by Akt and calcium signal pathways. Therefore, calcuim and Akt are considered as therapeutic target for developing anti-inflammatory agents.
as §1

K562 cell = test system: K562 cell; parameters: method as in PMID 20591678; settings: read-out: IC50 against the growth of K562 cell; cited from earlier work
[Ca^2+]i = fMLF-induced intracellular calcium mobilization in human neutrophils (fluo-3 AM); format: cell-based; settings: Figure 3
Procedure: as §1
Neutrophils were loaded with fluo-3 AM (2 μM) at 37 °C for 45 min. Cells were preincubated with compounds for 5 min, and then activated by fMLF (100 nM). The change in fluorescence was monitored using a Hitachi F-4500 spectrofluorometer (Tokyo, Japan). The excitation wavelength was 488 nm, and the emission wavelength was 520 nm.

Akt (S473) = assay: Western analysis of fMLF-induced Akt phosphorylation in human neutrophils; format: cell-based; settings: fMLF-activated human neutrophils; Figure 2B
Procedure: as §1
(§4) Neutrophils were pretreated with compounds for 5 min before being stimulated with fMLF at 37 °C. The reaction was stopped by adding 5 × Laemmli’s sample buffer. Proteins derived from whole-cell lysates were separated by SDS-polyacrylamide gel electrophoresis (PAGE) using polyacrylamide gels and blotted onto nitrocellulose membranes. Immunoblotting was performed using the indicated antibodies and horseradish peroxidase (HRP)-conjugated secondary anti-rabbit antibodies (Cell Signaling Technology, Beverly, MA, USA). The immunoreactive bands were visualized by an enhanced chemiluminescence system (Amersham Biosciences, Bucks, UK) and detected by Ultraviolet Product (UVP) imaging system (Upland, CA, USA).

Src (Src family Y416) = assay: Western analysis of fMLF-induced Src phosphorylation in human neutrophils; format: cell-based; settings: fMLF-activated human neutrophils; Figure 2A
Procedure: as §1, §4

Row | Compound | IC50 [4] [µM] | melting point [°C] | viability at 4 μg/mL [5] [%] | viability at 4 μg/mL [6] [%] | IC50 [7] [µM] | viability at 4 μg/mL [8] [%] | also measured
1 | COc1ccc(-c2nc3c4ccccc4c4occc4c3[nH]2)cc1 [Compound 2, 2-(4-methoxyphenyl)furo[3',2':3,4]naphtho[1,2-d]imidazole] | – | – | – | – | – | – | IC50 [1]: 0.047 µM
2 | COc1ccc(OC2=CC(=O)C(=O)c3ccccc32)cc1 [Compound 4, 4-(4-methoxyphenoxy)naphthalene-1,2-dione] | – | – | – | – | – | – | Inhibition of NO released [2]: able to inhibit; Inhibition of TNF-α released [3]: able to inhibit
3 | Cc1cc2c(n1Cc1ccccc1)C(=O)c1ccccc1C2=NO [Compound 11, 1-Benzyl-4-(hydroxyimino)-2-methyl-1H-benzo[f]indol-9(4H)-one] | 7.47 ± 1.39 | 259 to 260 | 110 | 104 | > 30 | 102 | –
4 | CCN(CC)CCNC(=O)c1ccc(/N=C2/c3ccccc3C(=O)c3c2cc(C)n3Cc2ccccc2)cc1 [Compound 16, (Z)-4-(1-benzyl-2-methyl-9-oxo-1H-benzo[f]indol-4(9H)-ylideneamino)-N-[2-(diethylamino)ethyl]benzamide] | 0.52 ± 0.11 | 138 to 139 | 18 | 57 | – | 106 | IC50 (NCI-H460 (lung)): 3.23 ± 0.34 µM; IC50 (MCF7 (breast)): 4.95 ± 0.21 µM; Effect of compound alone on elastase release ([7]; human neutrophils, table dash with footnote b = alone induced elastase release): induced NE release of human neutrophils; IC50 (SF-268 (CNS)): 25.8 ± 1.66 µM; IC50 (Detroit 551): 4.78 ± 0.57 µM
5 | benzo[a]furo[2,3-c]phenazinecarboxylic acid [Compound 3] | – | – | – | – | – | – | Inhibition of superoxide anion generation [9]: strongly inhibited superoxide anion generation
6 | Cc1cc2c(n1Cc1ccccc1)C(=O)c1ccccc1C2=O [Compound 9, 1-Benzyl-2-methyl-1H-benzo[f]indole-4,9-dione] | 14 ± 4.4 | 139 to 140 | 104 | 105 | > 30 | 106 | –
7 | CC[C@@]1(O)C(=O)OCc2c1cc1n(c2=O)Cc2cc3ccccc3nc2-1 [CPT, camptothecin, reference compound] | – | – | 1 | 33 | – | 25 | IC50 (NCI-H460 (lung)): 0.03 ± 0.003 µM; IC50 (MCF7 (breast)): 0.57 ± 0.03 µM; IC50 (SF-268 (CNS)): 0.19 ± 0.006 µM; IC50 (Detroit 551): 0.99 ± 0.09 µM
8 | O=C1c2ccccc2C(=O)c2c1ccn2Cc1ccccc1 [Compound 8, 1-Benzyl-1H-benzo[f]indole-4,9-dione] | 16.1 ± 1.87 | 173 to 174 | 96 | 99 | > 30 | 103 | –
9 | CON=C(C)c1c2c(n(Cc3ccccc3)c1C)C(=O)c1ccccc1C2=O [Compound 14, 1-Benzyl-3-[1-(methoxyimino)ethyl]-2-methyl-1H-benzo[f]indole-4,9-dione] | > 30 | 168 to 169 | 108 | 104 | > 30 | 112 | –
10 | CC1(C)CCC2=C(O1)c1ccccc1C(=O)C2=O [β-LAPA, β-lapachone] | – | – | – | – | – | – | Inhibition of expression of nitric oxide (NO) (alveolar macrophages [10]): able to inhibit; Inhibition of expression of PGE2 (alveolar macrophages [11]): able to inhibit
11 | CCN(CC)CCNC(=O)c1ccc(/N=C2/c3ccccc3C(=O)c3c2ccn3Cc2ccccc2)cc1 [Compound 15, (Z)-4-(1-benzyl-9-oxo-1H-benzo[f]indol-4(9H)-ylideneamino)-N-[2-(diethylamino)ethyl]benzamide] | – | 152 to 153 | 31 | 82 | – | 120 | Cytotoxicity in human neutrophils (LDH release) (human neutrophils; 3, 10 and 30 μM): showed cytotoxicity effects; IC50 (NCI-H460 (lung)): 3.16 ± 0.13 µM; IC50 (MCF7 (breast)): 4.98 ± 0.15 µM; IC50 (SF-268 (CNS)): 27.4 ± 0.39 µM; IC50 (Detroit 551): 7.68 ± 0.58 µM
12 | O=c1cc(N2CCOCC2)oc2c(-c3ccccc3)cccc12 [LY294002, reference compound] | 1.36 ± 0.33 | – | – | – | 2.21 ± 0.45 | – | –
13 | CC(=NO)c1c2c(n(Cc3ccccc3)c1C)C(=O)c1ccccc1C2=O [Compound 13, 1-Benzyl-3-[1-(hydroxyimino)ethyl]-2-methyl-1H-benzo[f]indole-4,9-dione] | 10.5 ± 0.52 | 204 to 205 | 111 | 106 | 14.7 ± 2.44 | 109 | –
14 | CC(=O)c1c2c(n(Cc3ccccc3)c1C)C(=O)c1ccccc1C2=O [Compound 12, 3-Acetyl-1-benzyl-2-methyl-1H-benzo[f]indole-4,9-dione] | > 30 | 135 to 136 | 88 | 78 | > 30 | 115 | –
15 | O=C1c2ccccc2/C(=N/O)c2ccoc21 [Compound 5, (Z)-4-(hydroxyimino)naphtho[2,3-b]furan-9(4H)-one] | – | – | – | – | – | – | IC50 (K562 cell): 0.82 µM
16 | O=C1c2ccccc2/C(=N/O)c2ccn(Cc3ccccc3)c21 [Compound 10, (Z)-1-Benzyl-4-(hydroxyimino)-1H-benzo[f]indol-9(4H)-one] | 2.74 | 202 to 203 | 110 | 110 | 2.78 | 106 | fMLF-induced mobilization of [Ca^2+]i ([Ca^2+]i): inhibited; Cytotoxicity in human neutrophils (LDH release) (human neutrophils; 30 μM, data not shown): showed no cytotoxicity effects; fMLF-induced phosphorylation of Akt (S473) (Akt (S473)): inhibited; fMLF-induced phosphorylation of Src (Src family Y416) (Src (Src family Y416)): did not alter
